# Experimental data published in patent US20240010681A1, “PEPTIDES AND METHODS OF USE” (REALTA LIFE SCIENCES, INC., priority 2020, published 2024).
# Assays:
# [1] = test system: VEGF binding to VEGFR-2 (KDR); test: VEGF Bioassay (Promega), bioluminescent reporter cells; conditions: increasing peptide concentrations, then human VEGF stimulation
# ICAM-5 = ICAM-5 (Homo sapiens, UniProt Q9UMF0); test: ELISA-type plate binding assay, ICAM-5; conditions: buffer
# [2] = test system: human umbilical vascular endothelial cell (HUVEC); test: HUVEC 3-dimensional culture, LPS-stimulated non-VEGF mediated angiogenesis; conditions: increasing amounts of peptide; 10 ug/ml LPS; 18 hours
# [3] = Pharmacokinetics, metabolite profiles and excretion of [14C]-PIC1-dPEG24 after single IV dose; assay type: in vivo, rat; conditions: for Adjusted Peak Distribution (ROI %) in Rat Plasma: AUC0-24 hr pooled plasma, integrated together: M89/M160, M1444/M1701/M1573, M1288/M1217, M2244/M2357/M2470, M2768/PIC1-dPEG24; for estimated mean concentration within 0-24 hr in AUC0-24 hr pooled plasma: parent value = PIC1-dPEG24 and M2768 together
# Description: […]. The six rats in Group 3 and Group 4 were further divided into two subgroups for serial blood collections at 10, 30 min and 1, 2, 3, 4, 6, 8, 24, and 48 hr. Blood was pooled by equal volume across animals at each time point, and aliquots (˜200 μL) of pooled blood were removed at each time point for total radioactivity, and the rest of blood samples were centrifuged to obtain plasma. Bile, urine, feces, and cage wash samples were collected up to 72 hr in bile duct cannulated (BDC) rats, and up to 168 hr in intact rats, and terminal blood samples were collected at the end of study (72 hr or 168 hr post-doses). The total radioactivity concentrations in the excreta, blood and plasma were determined by homogenization, combustion and/or liquid scintillation counting (LSC). The metabolite profiles and structure characterization were conducted in pooled plasma, urine, and bile samples using LC-UV/MS as well as radioactive detection. […].
# The radioactive profiles of rat plasma samples for the low dose group and the high dose group were qualitatively similar.
# MAC-1/CR3 = MAC-1/CR3 (Homo sapiens, UniProt P05107+P11215); test: ELISA-type plate binding assay, MAC-1; conditions: 1% gelatin/PBS buffer
# MAC-1/CR3, sequence (P05107 23-769, other chains not shown): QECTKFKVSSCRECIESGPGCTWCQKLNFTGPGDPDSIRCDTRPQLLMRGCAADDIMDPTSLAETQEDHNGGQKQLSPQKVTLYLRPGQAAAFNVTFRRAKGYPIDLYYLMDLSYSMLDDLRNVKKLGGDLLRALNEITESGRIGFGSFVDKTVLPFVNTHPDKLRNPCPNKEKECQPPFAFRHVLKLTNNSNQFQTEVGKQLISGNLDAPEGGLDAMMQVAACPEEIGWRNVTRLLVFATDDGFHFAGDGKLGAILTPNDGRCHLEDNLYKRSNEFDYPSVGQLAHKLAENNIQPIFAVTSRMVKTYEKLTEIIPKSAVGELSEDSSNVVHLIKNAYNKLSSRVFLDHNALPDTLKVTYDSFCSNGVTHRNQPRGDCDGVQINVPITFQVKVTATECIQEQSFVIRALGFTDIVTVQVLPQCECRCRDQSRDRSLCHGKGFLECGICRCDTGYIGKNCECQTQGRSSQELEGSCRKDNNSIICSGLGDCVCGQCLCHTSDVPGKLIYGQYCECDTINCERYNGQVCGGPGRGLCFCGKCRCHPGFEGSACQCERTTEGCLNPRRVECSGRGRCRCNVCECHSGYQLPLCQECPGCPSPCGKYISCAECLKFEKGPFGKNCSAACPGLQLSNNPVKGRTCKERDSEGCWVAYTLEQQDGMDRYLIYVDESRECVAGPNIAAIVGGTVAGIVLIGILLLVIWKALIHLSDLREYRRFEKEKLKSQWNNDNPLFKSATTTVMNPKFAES
# Description: (§1) To address this hypothesis, an ELISA-type binding assay was developed in which neutrophil ligands (LFA-1 and MAC-1/CR3) and […] cell ligands (ICAM-1/CD54 and ICAM-2/CD102) were bound to microtiter plates. Plates were then incubated with increasing amounts of PA-dPEG24 in 1% gelatin/PBS buffer probed with antibody to the peptide and developed.
# two-hit ALI model = test: Lung histology (H&E) and ImageJ lung injury score in two-hit ALI rat model; assay type: in vivo
# Description: The inventors' previously developed two-hit ALI model is initiated by infusion of LPS (first hit) into Wistar rats followed 30 minutes later with transfusion of 30% incompatible erythrocytes (second hit) and sacrifice of the animals 4 hours later. […] Lungs were isolated from animals four hours after the second hit and tissues evaluated by H&E staining.
# To determine the level of lung tissue protection by RLS-0071 in this model, grading of H&E sections for cell wall thickening for the different treatment groups was performed. Images of randomized microscopy fields were converted to black and white and quantified by ImageJ (NIH) analysis. The ratio of black to white pixels was then determined as a measure of lung damage: as lung damage increased, the alveolar walls thickened, shrinking the alveolar space (white space), resulting in a decrease in white pixels and increase in black pixels.
# ICAM-2/CD102 = ICAM-2/CD102 (Homo sapiens, UniProt P13598); test: ELISA-type plate binding assay, ICAM-2; conditions: 1% gelatin/PBS buffer
# ICAM-2/CD102, sequence (P13598 25-275): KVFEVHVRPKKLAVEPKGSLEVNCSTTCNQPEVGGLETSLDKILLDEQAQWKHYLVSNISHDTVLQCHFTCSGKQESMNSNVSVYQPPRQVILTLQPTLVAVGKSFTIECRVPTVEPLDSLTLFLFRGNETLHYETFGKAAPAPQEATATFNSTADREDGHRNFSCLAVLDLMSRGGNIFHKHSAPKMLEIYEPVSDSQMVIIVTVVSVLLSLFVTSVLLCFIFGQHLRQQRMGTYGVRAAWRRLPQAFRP
# Description: as §1
# free DNA = test: OVA/LPS rat asthma model, free DNA in BALF (PicoGreen); conditions: prophylactic or rescue 160 mg/kg IV; vs asthma rats Days 22-24; not back to baseline
# human neutrophils = test: Human neutrophil viability, Cell Counting Kit-8; assay type: cell-based; conditions: cells in PBS or RPMI; compared to buffer alone
# Description: Cell viability in the presence of increasing amounts of PA-dPEG24 was determined using the Cell Counting Kit-8 (Dojindo). Cell Counting Kit-8 (CCK-8) is a sensitive colorimetric assay for the determination of cell viability in cell proliferation and cytotoxicity assays. The highly water-soluble tetrazolium salt, WST-8, is reduced by dehydrogenase activities in cells to give a yellow-color formazan dye, which is soluble in the tissue culture media. The amount of the formazan dye, generated by the activities of dehydrogenases in cells, is directly proportional to the number of living cells. Neutrophils were isolated from whole blood. Briefly, heparinized whole blood was collected from four different individuals (n=4). The blood was spun on a Hypaque/Ficoll gradient. The pellet was collected, and 3% dextran was added for 20 minutes. The supernatant was collected and washed several times. After a red blood cell lysis, the neutrophils were resuspended in either PBS or RPMI at a concentration of 1.0×10^6 cells/mL. ‘Fresh’ neutrophils were taken at this point and 100 uL (100,000 cells/well) were added to a 96-well plate. 10 uL of CCK-8 (Dojindo Molecular Technologies) was added to each well for 2 hours at 37 C. Absorbance at 450 nm was read to determine viability. […] Absorbance at 450 nm was read to determine viability.
# human monocytes = test: C1q-immune complex binding to C1q receptors on human monocytes; assay type: cell-based; conditions: increasing amounts of peptide
# Source text: Human monocytes were purified and allowed to adhere to a microtiter plate. […] Absorbance was read at 450 nm. N=3. Bars indicate standard error of the mean (SEM).
# Freshly purified human monocytes were allowed to adhere to a 96 well tissue culture plates and nonadherent lymphocytes were removed. […] Unbound immune complexes were washed off and an anti-rabbit HRP antibody was used to detect bound immune complexes, followed by development with TMB and quenching of the reaction with 1N H2SO4 and detection at 450 nm in a plate reader. […] Therefore, without wishing to be bound by theory, this increase has implications for diseases where immune complexes contribute to pathogenesis, including numerous inflammatory ophthalmologic diseases (e.g., uveitis or retinitis), which are situations were increased rapidity of immune complexes can potentially lessen disease severity.
# ICAM-5, sequence (Q9UMF0 32-924): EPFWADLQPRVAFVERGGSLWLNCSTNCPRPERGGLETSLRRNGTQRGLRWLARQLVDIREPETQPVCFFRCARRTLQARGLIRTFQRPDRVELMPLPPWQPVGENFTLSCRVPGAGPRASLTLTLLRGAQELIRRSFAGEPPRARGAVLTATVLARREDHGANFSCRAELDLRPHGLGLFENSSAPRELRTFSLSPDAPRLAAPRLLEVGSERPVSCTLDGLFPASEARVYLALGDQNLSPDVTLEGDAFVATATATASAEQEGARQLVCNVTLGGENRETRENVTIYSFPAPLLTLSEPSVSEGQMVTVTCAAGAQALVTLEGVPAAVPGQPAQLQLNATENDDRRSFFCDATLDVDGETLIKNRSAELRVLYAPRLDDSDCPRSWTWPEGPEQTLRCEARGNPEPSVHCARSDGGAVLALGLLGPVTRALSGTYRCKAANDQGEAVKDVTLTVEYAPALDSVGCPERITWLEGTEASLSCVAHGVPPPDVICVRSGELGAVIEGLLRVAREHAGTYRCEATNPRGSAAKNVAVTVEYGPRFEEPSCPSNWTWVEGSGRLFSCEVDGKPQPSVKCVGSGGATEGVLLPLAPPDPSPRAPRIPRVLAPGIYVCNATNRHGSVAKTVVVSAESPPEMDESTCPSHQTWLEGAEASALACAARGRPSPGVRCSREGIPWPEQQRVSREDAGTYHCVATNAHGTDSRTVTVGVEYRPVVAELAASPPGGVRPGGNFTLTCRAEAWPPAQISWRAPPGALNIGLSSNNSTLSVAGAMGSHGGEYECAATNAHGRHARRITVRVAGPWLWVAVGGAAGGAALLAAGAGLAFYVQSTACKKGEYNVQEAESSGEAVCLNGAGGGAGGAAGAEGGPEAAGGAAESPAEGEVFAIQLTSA
compound,measurement,setting,value
CC[C@H](C)[C@H](N)C(=O)N[C@@H](C)C(=O)N[C@@H](CC(C)C)C(=O)N[C@H](C(=O)N[C@@H](CC(C)C)C(=O)N[C@@H](CCC(=O)O)C(=O)N1CCC[C@H]1C(=O)N[C@H](C(=O)N[C@@H](CS)C(=O)N[C@@H](CS)C(=O)N[C@@H](CCC(N)=O)C(=O)N[C@@H](CCC(=O)O)C(=O)N[C@@H](CCCNC(=N)N)C(=O)N[C@@H](C)C(=O)N[C@@H](C)C(=O)NCCOCCOCCOCCOCCOCCOCCOCCOCCOCCOCCOCCOCCOCCOCCOCCOCCOCCOCCOCCOCCOCCOCCOCCOCCC(=O)O)[C@@H](C)CC)[C@@H](C)CC [RLS-0071],inhibition of VEGF binding to VEGFR-2 and intracellular signaling (luminescence),[1],dose-dependent inhibition of intracellular signaling
same,binding to ICAM-5,ICAM-5,superior binding to ICAM-5
same,angiogenesis (sprouting and tube formation),[2],dose-dependent reduction in angiogenesis
same,Adjusted Peak Distribution (ROI %) in Rat Plasma,[3]; Group 3 (20 mg/kg IV),about 12%
same,Adjusted Peak Distribution (ROI %) in Rat Plasma,[3]; Group 4 (200 mg/kg IV),~16%
same,estimated mean concentration within 0-24 hr in AUC0-24 hr pooled plasma,[3]; high dose group (200 mg/kg IV),2225 ng Eq/g
same,estimated mean concentration within 0-24 hr in AUC0-24 hr pooled plasma,[3]; low dose group (20 mg/kg IV),187 ng Eq/g
same,binding to MAC-1,MAC-1/CR3,but not MAC-1
same,lung injury score (ratio of black to white pixels),"two-hit ALI model; 10 mg/kg prophylactic dose, p=0.002 vs untreated 2-hit animals",significant reduction in lung damage
same,lung injury score (ratio of black to white pixels),"two-hit ALI model; 40 mg/kg prophylactic dose, p<0.001 vs untreated 2-hit animals",this effect was enhanced
same,lung damage by H&E histology,"two-hit ALI model; prophylactic 10, 40 or 160 mg/kg 2 minutes before incompatible erythrocyte transfusion, lungs 4 h after second hit",marked reduction in lung damage
same,lung tissue architecture by H&E histology,"two-hit ALI model; rescue 40 mg/kg at 0.5, 60, 90, 120 and 180 min after second hit",lung tissue architecture resembling that of sham animals
same,lung injury score (ratio of black to white pixels),"two-hit ALI model; rescue 40 mg/kg at 0.5, 60, 90, 120 and 180 minutes after erythrocyte transfusion, all p<0.001",significant reduction in lung damage
same,binding to ICAM-2,ICAM-2/CD102,but not ICAM-2
same,free DNA in the BALF,free DNA,a decrease in free DNA was observed
same,time RLS-0071 could be detected in vitreous post-IVT injection,IVT 160 mg/ml in 5 microliters,up to 10 days
same,"half-life, IVT versus IV",IVT 160 mg/ml vs IV 200 mg/ml,much longer half-life in the eye than peptide delivered intravenously
same,"neutrophil viability (CCK-8, absorbance 450 nm)",human neutrophils,dose-dependent increase in viability
same,amount of C1q detected on monocytes,human monocytes,increased with increasing amounts of PA-dPEG24
same,level of C1q-immune complexes bound to monocytes,human monocytes,did not reduce the level of C1q-immune complexes
